In patent US20050026911A1, “Benzotriazapinone salts and methods for using same” (priority 2003, published 2005):

target: T1, gastrin (CCK2) receptors (Rattus norvegicus, UniProt P30553); assay: gastrin (CCK2) antagonist activity in an immature rat stomach assay; details: pentagastrin dose-response curves, acid secretion, read-out: pKB rat stomach (converted)
T1 construct: The stomach was excised and flushed with ca. 1 ml of unbuffered physiological saline solution; from tissue; host or cells: isolated whole stomach of immature rats (ca. 21 days old)
T1 sequence (P30553 1-452): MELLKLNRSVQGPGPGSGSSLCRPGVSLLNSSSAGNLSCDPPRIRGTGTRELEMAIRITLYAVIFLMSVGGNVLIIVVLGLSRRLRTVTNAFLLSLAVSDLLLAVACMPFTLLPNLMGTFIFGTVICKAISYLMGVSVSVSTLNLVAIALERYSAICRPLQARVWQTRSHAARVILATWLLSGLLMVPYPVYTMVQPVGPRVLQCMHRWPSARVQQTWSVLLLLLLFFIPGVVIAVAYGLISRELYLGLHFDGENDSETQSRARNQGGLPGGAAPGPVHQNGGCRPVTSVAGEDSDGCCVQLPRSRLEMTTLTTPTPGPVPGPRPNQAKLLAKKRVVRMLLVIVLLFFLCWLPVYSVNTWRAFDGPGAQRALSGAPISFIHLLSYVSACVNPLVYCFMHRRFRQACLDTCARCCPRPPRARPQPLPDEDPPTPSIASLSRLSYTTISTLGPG
Procedure, shortened: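 Pentagastrin dose-response curves were run cumulatively 60 min after drug went into the serosal bath, itself after 120 min stabilisation. Preparation: perfused stomach from rats ca. 21 days old (33-50 g), with unbuffered saline under 100% O2 at 1 ml min^−1 and perfusate pH monitored.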

Structure (SMILES)	Kb [µM]
CC(C)(C)C(=O)CN1C(=O)N(CC(=O)Nc2cc(C(=O)O)cc(C(=O)O)c2)N=C(C2CCCCC2)c2ccccc21 [Example 39, 5-{2-[5-Cyclohexyl-1-(3,3-dimethyl-2-oxo-butyl)-2-oxo-1,2-dihydro-3H-1,3,4-benzotriazepin-3-yl]-acetylamino}-isophthalic acid]	0.00759
CNc1cccc(NC(=O)CN2N=C(c3ccccn3)c3ccccc3N(CC(=O)c3ccccc3C)C2=O)c1 [Example 7, N-(3-Methylamino-phenyl)-2-[2-oxo-1-(2-oxo-2-o-tolyl-ethyl)-5-pyridin-2-yl-1,2-dihydro-3H-1,3,4-benzotriazepin-3-yl]-acetamide]	0.0501
CC1(C(=O)CN2C(=O)N(CC(=O)Nc3cccc(SCC(=O)O)c3)N=C(C3CCCCC3)c3ccccc32)CCCCC1 [Example 134, [3-(2-{5-Cyclohexyl-1-[2-(1-methyl-cyclohexyl)-2-oxo-ethyl]-2-oxo-1,2-dihydro-3H-1,3,4-benzotriazepin-3-yl}-acetylamino)-phenylsulfanyl]-acetic acid]	0.0174
CC1(C(=O)CN2C(=O)N(CC(=O)Nc3cccc(C(=O)O)c3)N=C(C3CCCCC3)c3ccccc32)CCCC1 [Example 88, 3-(2-{5-Cyclohexyl-1-[2-(1-methyl-cyclopentyl)-2-oxo-ethyl]-2-oxo-1,2-dihydro-3H-1,3,4-benzotriazepin-3-yl}-acetylamino)-benzoic acid]	0.0117
CC(=O)N(CC(=O)O)c1cccc(NC(=O)CN2N=C(C3CCCCC3)c3ccccc3N(CC(=O)C(C)(C)C)C2=O)c1 [Example 65, [Acetyl-(3-{2-[5-cyclohexyl-1-(3,3-dimethyl-2-oxo-butyl)-2-oxo-1,2-dihydro-3H-1,3,4-benzotriazepin-3-yl]-acetylamino}-phenyl)-amino]-acetic acid]	0.0525
CC(C)(C)C(=O)CN1C(=O)N(CC(=O)Nc2cccc(-c3cccc(C(=O)O)c3)c2)N=C(C2CCCCC2)c2ccccc21 [Example 151, 3′-{2-[5-Cyclohexyl-1-(3,3-dimethyl-2-oxo-butyl)-2-oxo-1,2-dihydro-3H-1,3,4-benzotriazepin-3-yl]-acetylamino}-biphenyl-3-carboxylic acid]	0.0115
O=C(CN1N=C(C2CCCCC2)c2ccccc2N(CC(=O)N2CCOCC2)C1=O)Nc1cccc(C(=O)O)c1 [Example 68, 3-{2-[5-Cyclohexyl-1-(2-morpholin-4-yl-2-oxo-ethyl)-2-oxo-1,2-dihydro-3H-1,3,4-benzotriazepin-3-yl]-acetylamino}-benzoic acid]	0.0813
CNc1nc(-c2cccc(NC(=O)CN3N=C(C4CCCCC4)c4ccccc4N(CC(=O)C(C)(C)C)C3=O)c2)cs1 [Example 150, 2-[5-Cyclohexyl-1-(3,3-dimethyl-2-oxo-butyl)-2-oxo-1,2-dihydro-3H-1,3,4-benzotriazepin-3-yl]-N-[3-(2-methylamino-thiazol-4-yl)-phenyl]-acetamide]	0.00129
O=C(CN1N=C(C2CCCCC2)c2ccccc2N(CC(=O)C23CC4CC(CC(C4)C2)C3)C1=O)Nc1cccc(C(=O)O)c1 [Example 17, 3-{2-[1-(2-Adamantan-1-yl-2-oxo-ethyl)-5-cyclohexyl-2-oxo-1,2-dihydro-3H-1,3,4-benzotriazepin-3-yl]-acetylamino}-benzoic acid]	0.115
Cc1cccc2c1C(C1CCCCC1)=NN(CC(=O)Nc1cccc(CC(=O)O)c1)C(=O)N2CC(=O)C(C)(C)C [Example 132, (3-{2-[5-Cyclohexyl-1-(3,3-dimethyl-2-oxo-butyl)-6-methyl-2-oxo-1,2-dihydro-3H-1,3,4-benzotriazepin-3-yl]-acetylamino}-phenyl)-acetic acid]	0.0661
COC(=O)c1coc(-c2cccc(NC(=O)CN3N=C(C4CCCCC4)c4ccccc4N(CC(=O)C(C)(C)C)C3=O)c2)n1 [Example 140, 2-(3-{2-[5-Cyclohexyl-1-(3,3-dimethyl-2-oxo-butyl)-2-oxo-1,2-dihydro-3H-1,3,4-benzotriazepin-3-yl]-acetylamino}-phenyl)-oxazole-4-carboxylic acid methyl ester]	0.00112

Other lines, results leading:

Kb [µM]	Structure (SMILES)
0.00417	CC(C)(C)C(=O)CN1C(=O)N(CC(=O)Nc2cccc(-c3nc(C(=O)O)co3)c2)N=C(C2CCCCC2)c2ccccc21 [Example 144, 2-(3-{2-[5-Cyclohexyl-1-(3,3-dimethyl-2-oxo-butyl)-2-oxo-1,2-dihydro-3H-1,3,4-benzotriazepin-3-yl]-acetylamino}-phenyl)-oxazole-4-carboxylic acid]
0.0324	CC(C)(C)C(=O)CN1C(=O)N(CC(=O)Nc2cccc(NCC(=O)O)c2)N=C(C2CCCCC2)c2ccccc21 [Example 52]
0.00209	CC(C)(C)C(=O)CN1C(=O)N(CC(=O)Nc2cccc3c2ccn3CC(=O)O)N=C(C2CCCCC2)c2ccccc21 [Example 127, (4-{2-[5-Cyclohexyl-1-(3,3-dimethyl-2-oxo-butyl)-2-oxo-1,2-dihydro-3H-1,3,4-benzotriazepin-3-yl]-acetylamino}-indol-1-yl)-acetic acid]
0.0038	CC(C)(C)C(=O)CN1C(=O)N(CC(=O)Nc2cccc(CSCC(=O)O)c2)N=C(C2CCCCC2)c2ccccc21 [Example 71, (3-{2-[5-Cyclohexyl-1-(3,3-dimethyl-2-oxo-butyl)-2-oxo-1,2-dihydro-3H-1,3,4-benzotriazepin-3-yl]-acetylamino}-benzylsulfanyl)-acetic acid]
0.0112	CC(C)(C)C(=O)CN1C(=O)N(CC(=O)Nc2cccc(-c3nn[nH]n3)c2)N=C(C2CCCCC2)c2ccccc21 [Example 23, 2-[5-Cyclohexyl-1-(3,3-dimethyl-2-oxo-butyl)-2-oxo-1,2-dihydro-3H-1,3,4-benzotriazepin-3-yl]-N-[3-(2H-tetrazol-5-yl)-phenyl]-acetamide]
0.209	CC(Nc1cccc(NC(=O)CN2N=C(C3CCCCC3)c3ccccc3N(CC(=O)C(C)(C)C)C2=O)c1)C(=O)O (racemic) [Example 75, 2-(3{2-[5-Cyclohexyl-1-(3,3-dimethyl-2-oxo-butyl)-2-oxo-1,2-dihydro-3H-1,3,4-benzotriazepin-3-yl]-acetylamino}-phenylamino)-propionic acid]
0.129	CC(C)(C)C(=O)CN1C(=O)N(CC(=O)Nc2cccc(CO)n2)N=C(C2CCCCC2)c2ccccc21 [Example 106, 2-[5-Cyclohexyl-1-(3,3-dimethyl-2-oxo-butyl)-2-oxo-1,2-dihydro-3H-1,3,4-benzotriazepin-3-yl]-N-(6-hydroxymethyl-pyridin-2-yl)-acetamide]

target: T2, human gastrin (CCK2) receptors (Homo sapiens, UniProt P32239); assay: [125I]-BH-CCK-8S binding at human gastrin (CCK2) receptors cloned into an NIH3T3 cell line; details: displacement of [125I]-BH-CCK-8S, hCCK2R NIH3T3 clone 7 cell membranes
T2 construct: amplified by PCR (polymerase chain reaction) from the start codon to the stop codon; expressed in transfected cells
T2 sequence (P32239 1-447): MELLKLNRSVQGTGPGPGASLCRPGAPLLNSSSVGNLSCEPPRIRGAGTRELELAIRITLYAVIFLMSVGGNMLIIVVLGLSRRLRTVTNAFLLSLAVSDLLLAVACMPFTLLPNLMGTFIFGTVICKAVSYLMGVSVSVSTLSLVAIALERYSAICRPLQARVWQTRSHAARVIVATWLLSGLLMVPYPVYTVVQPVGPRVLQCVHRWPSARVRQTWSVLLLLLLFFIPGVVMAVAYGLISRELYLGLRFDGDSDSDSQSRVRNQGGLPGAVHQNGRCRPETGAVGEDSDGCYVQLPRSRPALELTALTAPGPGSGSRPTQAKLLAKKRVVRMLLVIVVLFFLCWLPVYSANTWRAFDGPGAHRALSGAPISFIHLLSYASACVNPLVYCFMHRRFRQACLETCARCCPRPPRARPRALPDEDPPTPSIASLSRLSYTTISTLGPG
Description: NIH3T3 cells from (ECACC) were cultured in Dulbecco's modified Eagle's medium (DMEM) (Invitrogen), containing 2 mM Glutamax I (Invitrogen), 10% heat inactivated newborn calf serum (Invitrogen). Cells (4×10^5) were seeded into 35 mm×10 mm dishes (Corning) and transfected using the Transfast™ reagent (Promega Corp.) according to the manufacturers instructions using 10 μg of the hCCK2R plasmid DNA at a ratio of 1:1 (DNA:Transfast™ reagent). Untransfected cells and cells transfected with vector only were also prepared as controls. After 48 h the cells were trypsinised using standard techniques (Culture of Animal Cells, A Manual of Basic Techniques 4th Ed, R. Ian Freshney) and dilutions were plated on 35 mm×10 mm dishes in media containing 800 μg/ml G-418 (Invitrogen). Cells were selected for 2 weeks until individual, separate colonies appeared. […] Using cloning rings and trypsinisation, according to standard techniques (Culture of Animal Cells, A Manual of Basic Techniques 4th Ed, R. Ian Freshney), individual colonies were picked from plates containing cells transfected with the vector only and cells transfected with the hCCK2R plasmid construct. The cells were expanded and analysed by radioligand binding analysis (see below).
Cultured clone 7 cells were stored as frozen pellets at −70° C. until required. Cell pellets were thawed in CCK2 assay buffer ((mM): 10 Hepes; 130 NaCl; 5 MgCl2; 4.7 KCl; 1 EGTA (pH7.2 at 21° C.) with 0.125 g Bacitracin added to each litre), and homogenised using a Polytron (4×1 s). The resulting membrane preparation was centrifuged at 39,800 g for 15 min at 4° C. Each cell pellet was re-suspended in fresh buffer and re-centrifuged as above. The final pellet was re-suspended by homogenisation (Teflon-in-glass), to the appropriate membrane concentration.
The assays were terminated by rapid filtration through pre-soaked Whatman GF/B filters which were washed (3×3 ml) with ice-cold 50 mM Tris HCl (pH7.4 @ 4° C.). Filters were transferred to plastic gamma counter vials and bound radioactivity determined by counting (1 min) in a Clini-gamma counter.
Saturation data were analysed using the curve-fitting programmes, Radlig and Ligand.
Briefly, dilution and addition of test compounds, radioligand and cell membranes were performed using a Beckman Biomek 2000. The ability of compounds to inhibit the specific binding of to hCCK2 receptors was determined in triplicate over a range of concentrations at half-log intervals. Total and non-specific binding was determined for each compound. Each compound was tested in a minimum of three experiments. Competition data were fitted to the Hill equation using Graph-pad Prism software to obtain estimates of the IC50 (mid-point location parameter) and nH (mid-point slope parameter). Dissociation constants (KI) were determined using the Cheng & Prusoff equation (1973) to correct for the receptor occupancy by the radioligand.

Structure (SMILES)	pKi ± s.e.mean
Cc1cccc(NC(=O)N[C@@H]2N=C(c3ccccc3)c3ccccc3N(CC(=O)c3ccccc3C)C2=O)c1 [YM022, reference compound]	10.19 ± 0.03
